This is an account of results in patent US10604481B2, “(Thio, oxo and seleno) semicarbazone complexes with zinc and their use for treating cancer” (RUTGERS, THE STATE UNIVERSITY OF NEW JERSEY, priority 2015, dated 2020).

For experiment [1], the system named is HEK293 (non-cancer, p53-WT) cells. Kind of experiment: Intracellular [Zn2+]free imaging with FluoZin-3-AM, HEK293. It is filed as cell-based. Conditions: for increase of intracellular [Zn2+]free (FZ3 fluorescence): HEK293, complete media. As for the experimental part:
To minimize the potential for Zn^2+ contamination and contributions from poorly defined elements in complete media (e.g. FBS), cells were treated and imaged in Ca^2+ and Mg^2+-free Earle's Balanced Salt Solution supplemented with 10 mM HEPES pH 7.4 (EBSS/H (−)Ca/Mg). Excess ZnCl2 with the Zn^2+ ionophore pyrithione (PYR) was used as a positive control. Excess membrane-permeable Zn^2+ chelator N,N,N′,N′-tetrakis(2-pyridylmethyl)ethane-1,2-diamine (TPEN) was used as a negative control.
To normalize for differential dye loading, cells were then sequentially treated with excess PYR/ZnCl2, imaged, treated with TPEN, and imaged again. PYR/ZnCl2 and TPEN served to saturate and apoize the intracellular FZ3, respectively.
TOV112D or HEK293 cells (40,000 cells/well) were plated on either 8-well BD Falcon chambered culture slides (Corning Life Sciences) or 8-chambered #1.5 Nunc Lab-Tek II chambered coverglasses (Thermo Scientific) treated with poly-L-lysine. After 48 h, cells were washed 2×5 m in serum-free media and incubated with 1 μM FZ3-AM for 40 m at 37° C. Cells were then washed 2×5 m in either EBSS/H (−)Ca/Mg or phenol-red free DMEM+10% FBS containing the indicated treatments for 20 m before imaging. For nuclear colocalization, 1 μg/mL Hoechst 33342 was also included. Cells were imaged using a Zeiss LSM510 META NLO confocal microscope equipped with 37° C. environmental control chamber. FZ3 and Hoechst 33342 were excited at 488 nm (argon laser) and 790 nm (Chameleon Ti:sapphire laser), respectively. To determine the kinetics of fluorescence change, each background-subtracted image in the time-lapse series was integrated in ImageJ and normalized to the integrated fluorescence of the first frame after treatment. For quantification of intracellular [Zn^2+]free, each cell was analyzed in the treated, 50 μM PYR/ZnCl2 (1:1), and 100 μM TPEN images by taking the mean fluorescence of an ROI inside the cell subtracted by an ROI immediately outside the cell measured in ImageJ. The [Zn^2+]free for each cell was then calculated by Eqn 2:
[formula] […] To minimize the effects of outliers the lowest and highest 5% of cells in each series were rejected, and the remaining values averaged to give the value from that experiment. The number of cells analyzed in each trial ranged from 54-163. For nuclear colocalization, treated, PYR/ZnCl2, and TPEN treated images costained with Hoechst 33342 were aligned and each pixel subjected to Eqn. 2 in MATLAB (MathWorks).

A short description of experiment [2]: Liposome import assay (RhodZin-3 in DOPC liposomes). The note with it: for transport of Zn2+ into liposomes (rate of RZ-3 fluorescence increase): external [Zn2+]free 10 μM. The protocol:
Zn^2+ alone was unable to permeate the liposomal membrane as indicated by the lack of RZ-3 fluorescence increase.
It can function as an ionophore in conditions of the liposome experiments where external [Zn^2+]free was 10 μM. However, in complete media containing 10% fetal bovine serum (FBS), Zn^2+-binding proteins from the serum (e.g. albumin) necessarily compete for Zn^2+ with any putative MC, making the effective [Zn^2+]free much lower than [Zn^2+]total.
DOPC-liposomes were prepared by film rehydration and extrusion followed by gel filtration and diluted to an OD600=0.06 in buffer. The size distribution of the liposomes was determined by dynamic light scattering (DLS) using a Malvern Zetasizer Nano ZS. Fluorescence measurements were taken on a Horiba Fluoromax-4 spectrofluorimeter in a 5×5 mm quartz cuvette with λex/λem=550/572 nm for RZ-3 and 490/515 nm for calcein. Initial Zn^2+ import/export was quantified by fitting the first 10-30 s of data after each treatment to a line and converted to units of flux using the following Eqn 1:
[formula] where Ji is the initial flux, ΔF/Δt is the slope of the fit line, Fmax is RZ-3 fluorescence in the presence of saturating Zn^2+ and 1% TritonX-100, Fmin is RZ-3 fluorescence in the presence of excess EDTA and 1% TritonX-100, [RZ3] is the concentration of encapsulated RZ-3, and SA/Vol is the surface area to volume ratio calculated assuming hollow spheres of the mean diameter determined by DLS. Intracellular [Zn^2+]free Imaging

The subject of experiment [3] is H460 (p53-WT). Kind of experiment: Three day cell growth inhibition assay, H460. The format is cell-based, human. Conditions: H460 (p53 wildtype), FIG. 2.
Experiment [4] concerns H1299 (p53-null). Description: Three day cell growth inhibition assay, H1299. The format is cell-based, human. The note with it: FIG. 2.
Experiment [5] can be described thus: Mouse survival, daily IP administration (Example 13). Conditions: mice, ZN1 5.6 mg/kg vs ZMC1 5 mg/kg IP daily, FIG. 5. The format is in vivo.

`C/C(=N\NC(=O)N1CCC1)c1ccccn1` [Compound 10, (E)-N′-(1-(pyridin-2-yl)ethylidene)azetidine-1-carbohydrazide]: in experiment [1], the “increase of intracellular [Zn2+]free (FZ3 fluorescence)” value (from here on “increase of intracellular [Zn2+]free”) is given as “did not”. Also, the “transport of Zn2+ into liposomes (rate of RZ-3 fluorescence increase)” value (shortened to “transport … (rate of RZ-3 fluorescence increase)”) in experiment [2] is on record as “shuttled Zn^2+ into the liposomes”.
Consider `C/C(=N\NC(=S)N1CCC1)c1ccccn1` [Compound 6, (E)-N′-(1-(pyridin-2-yl)ethylidene)azetidine-1-carbothiohydrazide], for which the “cell growth inhibition (cell killing)” value in experiment [3] and in experiment [4] was “undisturbed” in each case. In addition, the “t1/2 of intracellular [Zn2+]free increase” value in experiment [1] (HEK293, ZMC1 and ZnCl2, EBSS/H (−)Ca/Mg, mean±SD, n=4) was 124 ± 20 s. The “increase of intracellular [Zn2+]free” value in experiment [1] was “increased intracellular [Zn^2+]free”. In addition, in experiment [2] (excess EDTA outside the liposomes), the “Zn2+ export from liposomes (RZ-3 fluorescence)” value was “time dependent decrease in RZ-3 fluorescence”. Further, the “transport … (rate of RZ-3 fluorescence increase)” value in experiment [2] is given as “dose-dependent increase”.
With `O=C(O)CN(CC(=O)O)CC(=O)O` [NTA, reference compound], in experiment [1], the “increase of intracellular [Zn2+]free” value was “did not”. Besides, the “transport … (rate of RZ-3 fluorescence increase)” value in experiment [2] is “did not”.
For [Zn(ZMC1)2] [Compound 12], the “potency in vivo (survival) relative to monomer ZMC1” value in experiment [5] is on record as “greater potency”.
